# Laboratory results: PubChem BioAssay AID342 (DTP/NCI, 2004)
# Where “and” joins values, the source holds several entries; their conditions need not be identical. Identical values can stand only once.
# System: Swiss mice, Sarcoma 180 sc, mean tumor weight T/C
# Assay: NCI In Vivo Anticancer Drug Screen. Data for tumor model Sarcoma 180 (subcutaneous) in Swiss mice
# Details: endpoint: mean tumor weight, higher = larger tumour
# How it was run: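 Mice bearing transplanted tumors were treated with compound, and survival or tumor size was measured. Values are expressed as the treated-group measurement (T) divided by the vehicle-treated control measurement (C).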
# [1] = dose: 31.0 mg/kg/injection, schedule: Q01DX007 (ip), vehicle: carboxymethylcellulose (CMC)
# [2] = dose: 62.0 mg/kg/injection, schedule: Q01DX007 (ip), vehicle: carboxymethylcellulose (CMC)
# [3] = dose: 125.0 mg/kg/injection, schedule: Q01DX007 (ip), vehicle: carboxymethylcellulose (CMC)
# [4] = dose: 0.4 mg/kg/injection, schedule: Q01DX007 (ip), vehicle: carboxymethylcellulose (CMC)
# [5] = dose: 0.8 mg/kg/injection, schedule: Q01DX007 (ip), vehicle: carboxymethylcellulose (CMC)
# [6] = dose: 3.2 mg/kg/injection, schedule: Q01DX007 (ip), vehicle: carboxymethylcellulose (CMC)
smiles,measurement,setting,value
O=C(Nc1ccc(C2=NCCN2)cc1)c1cccc(C(=O)Nc2ccc(C3=NCCN3)cc2)c1,T/C,"dose: 1.2 mg/kg/injection, schedule: Q01DX007 (ip), vehicle: carboxymethylcellulose (CMC)",167 % of control
same,T/C,"dose: 4.7 mg/kg/injection, schedule: Q01DX007 (ip), vehicle: carboxymethylcellulose (CMC)",109 % of control
same,T/C,"dose: 9.4 mg/kg/injection, schedule: Q01DX007 (ip), vehicle: carboxymethylcellulose (CMC)",117 % of control
same,T/C,"dose: 60.0 mg/kg/injection, schedule: Q01DX007 (ip), vehicle: carboxymethylcellulose (CMC)",163 % of control
same,T/C,"dose: 120.0 mg/kg/injection, schedule: Q01DX007 (ip), vehicle: carboxymethylcellulose (CMC)",98 % of control
same,T/C,"dose: 240.0 mg/kg/injection, schedule: Q01DX007 (ip), vehicle: carboxymethylcellulose (CMC)",79 % of control
CCCCN(C)N=Nc1n[nH]nc1C(N)=O,T/C,"dose: 16.0 mg/kg/injection, schedule: Q01DX007 (ip), vehicle: carboxymethylcellulose (CMC)",93 % of control
same,T/C,[1],85 % of control
same,T/C,[2],38 % of control
CCOC(=O)c1ccc(N=NN(C)C)cc1,T/C,[2],74 % of control
same,T/C,[3],49 % of control
same,T/C,"dose: 187.0 mg/kg/injection, schedule: Q01DX007 (ip), vehicle: carboxymethylcellulose (CMC)",23 % of control
same,T/C,"dose: 250.0 mg/kg/injection, schedule: Q01DX007 (ip), vehicle: carboxymethylcellulose (CMC)",12 % of control
CN(N=Nc1n[nH]nc1C(N)=O)c1ccccc1,T/C,[1],65 % of control
same,T/C,[2],73 % of control
same,T/C,[3],70 % of control
CC(=O)OCC1OC(n2cnc3c(=S)nc[nH]c32)C(OC(C)=O)C1OC(C)=O (stereo not given),T/C,"dose: 20.0 mg/kg/injection, schedule: Q01DX007 (ip), vehicle: carboxymethylcellulose (CMC)",81 % of control
same,T/C,"dose: 30.0 mg/kg/injection, schedule: Q01DX007 (ip), vehicle: carboxymethylcellulose (CMC)",75 % of control
same,T/C,"dose: 45.0 mg/kg/injection, schedule: Q01DX007 (ip), vehicle: carboxymethylcellulose (CMC)",54 % of control
COC(=O)CC(C(=O)C=[N+]=[N-])N1C(=O)c2ccccc2C1=O (stereo not given),T/C,"dose: 0.03 mg/kg/injection, schedule: Q01DX007 (ip), vehicle: carboxymethylcellulose (CMC)",112 % of control
same,T/C,"dose: 0.05 mg/kg/injection, schedule: Q01DX007 (ip), vehicle: carboxymethylcellulose (CMC)",89 % of control
same,T/C,"dose: 0.1 mg/kg/injection, schedule: Q01DX007 (ip), vehicle: carboxymethylcellulose (CMC)",101 % of control
same,T/C,"dose: 0.2 mg/kg/injection, schedule: Q01DX007 (ip), vehicle: carboxymethylcellulose (CMC)",95 % of control and 102 % of control
same,T/C,[4],115 % of control
same,T/C,[5],88 % of control and 91 % of control
same,T/C,[6],99 % of control
same,T/C,"dose: 6.4 mg/kg/injection, schedule: Q01DX007 (ip), vehicle: carboxymethylcellulose (CMC)",70 % of control and 83 % of control
same,T/C,"dose: 12.8 mg/kg/injection, schedule: Q01DX007 (ip), vehicle: carboxymethylcellulose (CMC)",87 % of control
same,T/C,"dose: 25.6 mg/kg/injection, schedule: Q01DX007 (ip), vehicle: carboxymethylcellulose (CMC)",84 % of control
CCCCn1cnc2c(Sc3c([N+](=O)[O-])ncn3C)nc(N)nc21,T/C,"dose: 2.75 mg/kg/injection, schedule: Q#A X014 (ip), vehicle: methylcellulose (MC)",95 % of control
same,T/C,"dose: 4.15 mg/kg/injection, schedule: Q#A X014 (ip), vehicle: methylcellulose (MC)",53 % of control
same,T/C,"dose: 6.25 mg/kg/injection, schedule: Q#A X014 (ip), vehicle: methylcellulose (MC)",66 % of control
same,T/C,"dose: 9.37 mg/kg/injection, schedule: Q#A X014 (ip), vehicle: methylcellulose (MC)",51 % of control
C[C@]12CCC(=O)C=C1CC[C@@H]1[C@@H]2[C@@H](O)C[C@@]2(C)[C@H]1CC[C@]2(O)C(=O)CF,T/C,"dose: 25.0 mg/kg/injection, schedule: Q#A X014 (sc), vehicle: steriod suspending solution",55 % of control
same,T/C,"dose: 125.0 mg/kg/injection, schedule: Q#A X014 (sc), vehicle: steriod suspending solution",43 % of control
same,T/C,"dose: 148.0 mg/kg/injection, schedule: Q01DX007 (sc), vehicle: steriod suspending solution",36 % of control
same,T/C,"dose: 222.0 mg/kg/injection, schedule: Q01DX007 (sc), vehicle: saline",26 % of control
same,T/C,"dose: 222.0 mg/kg/injection, schedule: Q01DX007 (sc), vehicle: steriod suspending solution",19 % of control
same,T/C,"dose: 250.0 mg/kg/injection, schedule: Q#A X014 (sc), vehicle: steriod suspending solution",43 % of control
same,T/C,"dose: 333.0 mg/kg/injection, schedule: Q01DX007 (sc), vehicle: saline",25 % of control
same,T/C,"dose: 500.0 mg/kg/injection, schedule: Q01DX007 (sc), vehicle: saline",21 % of control
same,T/C,"dose: 750.0 mg/kg/injection, schedule: Q01DX007 (sc), vehicle: saline",20 % of control
same,T/C,"dose: 1125.0 mg/kg/injection, schedule: Q01DX007 (sc), vehicle: steriod suspending solution",13 % of control
CC(=O)OC(C)(C)/C=C/C(=O)[C@](C)(O)[C@H]1[C@H](O)C[C@@]2(C)[C@@H]3CC=C4[C@@H](C=C(O)C(=O)C4(C)C)[C@]3(C)C(=O)C[C@]12C,T/C,[4],54 % of control
same,T/C,[5],29 % of control
same,T/C,"dose: 1.6 mg/kg/injection, schedule: Q01DX007 (ip), vehicle: carboxymethylcellulose (CMC)",94 % of control
same,T/C,[6],88 % of control
CCOc1ccc2c(c1)CC[C@@H]1[C@@H]2CC[C@@]2(C)[C@H]1CC[C@]2(C)O,T/C,"dose: 0.5 mg/kg/injection, schedule: Q#A X014 (sc), vehicle: steriod suspending solution",92 % of control
same,T/C,"dose: 5.0 mg/kg/injection, schedule: Q#A X014 (sc), vehicle: steriod suspending solution",79 % of control
same,T/C,"dose: 50.0 mg/kg/injection, schedule: Q#A X014 (sc), vehicle: steriod suspending solution",72 % of control
COC(=O)c1cccc2c[n+]3c(cc12)-c1[nH]c2cc(OC)ccc2c1CC3,T/C,"dose: 10.0 mg/kg/injection, schedule: Q01DX007 (ip), vehicle: other",70 % of control
same,T/C,"dose: 50.0 mg/kg/injection, schedule: Q01DX007 (ip), vehicle: other",73 % of control
same,T/C,"dose: 200.0 mg/kg/injection, schedule: Q01DX007 (ip), vehicle: other",74 % of control
CCN(CC)CCNc1ccc([N+](=O)[O-])c2sc3ccccc3c(=O)c12,T/C,"dose: 14.0 mg/kg/injection, schedule: Q#A X014 (ip), vehicle: saline",71 % of control
same,T/C,"dose: 21.0 mg/kg/injection, schedule: Q#A X014 (ip), vehicle: saline",65 % of control
same,T/C,"dose: 31.5 mg/kg/injection, schedule: Q#A X014 (ip), vehicle: saline",65 % of control
same,T/C,"dose: 47.5 mg/kg/injection, schedule: Q#A X014 (ip), vehicle: saline",34 % of control
Nc1nc(=O)n(C2CC(O)C(CO)O2)cc1F (stereo not given),T/C,"dose: 22.0 mg/kg/injection, schedule: Q#A X014 (ip), vehicle: saline",10 % of control
same,T/C,"dose: 33.5 mg/kg/injection, schedule: Q#A X014 (ip), vehicle: saline",7 % of control
same,T/C,"dose: 50.0 mg/kg/injection, schedule: Q#A X014 (ip), vehicle: saline",3 % of control
same,T/C,"dose: 75.0 mg/kg/injection, schedule: Q#A X014 (ip), vehicle: saline",2 % of control
CCn1cnc2c(=S)nc[nH]c21,T/C,"dose: 50.0 mg/kg/injection, schedule: Q01DX007 (ip), vehicle: carboxymethylcellulose (CMC)",55 % of control
same,T/C,"dose: 100.0 mg/kg/injection, schedule: Q01DX007 (ip), vehicle: carboxymethylcellulose (CMC)",25 % of control
O=C(O)C(O)C(F)(F)F (stereo not given),T/C,"dose: 15.5 mg/kg/injection, schedule: Q#A X014 (ip), vehicle: saline",111 % of control
same,T/C,"dose: 62.5 mg/kg/injection, schedule: Q#A X014 (ip), vehicle: saline",90 % of control
same,T/C,"dose: 125.0 mg/kg/injection, schedule: Q#A X014 (ip), vehicle: saline",123 % of control
O=C(CCCl)N1CCN(C(=O)CCCl)CC1,T/C,"dose: 110.0 mg/kg/injection, schedule: Q#A X014 (ip), vehicle: methylcellulose (MC)",66 % of control
same,T/C,"dose: 167.5 mg/kg/injection, schedule: Q#A X014 (ip), vehicle: methylcellulose (MC)",54 % of control
CCNc1nncs1,T/C,"dose: 13.7 mg/kg/injection, schedule: Q01DX007 (ip), vehicle: carboxymethylcellulose (CMC)",59 % of control
same,T/C,"dose: 16.37 mg/kg/injection, schedule: Q01DX007 (ip), vehicle: carboxymethylcellulose (CMC)",97 % of control and 108 % of control
same,T/C,"dose: 27.5 mg/kg/injection, schedule: Q01DX007 (ip), vehicle: carboxymethylcellulose (CMC)",58 % of control
same,T/C,"dose: 32.75 mg/kg/injection, schedule: Q01DX007 (ip), vehicle: carboxymethylcellulose (CMC)",75 % of control and 98 % of control
same,T/C,"dose: 55.0 mg/kg/injection, schedule: Q01DX007 (ip), vehicle: carboxymethylcellulose (CMC)",47 % of control
same,T/C,"dose: 110.0 mg/kg/injection, schedule: Q01DX007 (ip), vehicle: carboxymethylcellulose (CMC)",41 % of control
same,T/C,"dose: 131.0 mg/kg/injection, schedule: Q01DX007 (ip), vehicle: carboxymethylcellulose (CMC)",46 % of control and 71 % of control
